Assay results from patent US20210196724A1, “BIARYL COMPOSITIONS AND METHODS FOR MODULATING A KINASE CASCADE” (Athenex, Inc., priority 2016, published 2021).
Where “and” joins values, the source holds several entries; their conditions need not be identical. Equal values may be shown once. Read-outs that look alike come from different tables or passages of the source.

Key:
HT-29 = assay: Cell growth inhibition (GI50), HT-29; format: cell-based
Procedure: (§1) The drug concentration required to block net cell growth by 50% relative to a control sample is measured as the GI50. The GI50s for several of the compounds of the application were assayed as described.

Jurkat = assay: Cell growth inhibition (GI50), Jurkat; format: cell-based
Procedure: as §1

GL261 cells = assay: MTT cell growth inhibition (GI50), GL261; format: cell-based, murine; details: 3 days
Procedure: as §1
(§2) MTT assay: U87 and GL261 cells were seeded in 96-well plate (6×10^3 cells in 100 μl of DMEM+10% FBS media per well) and incubated overnight at 37° C. with 5% CO2. All test compounds were diluted (10 point 2-fold serial dilution) in a separate 96-well plate to yield 10× of final concentrations (0.5-256 nM). A volume of 11 μl of 10× dilutions was added to appropriate wells (n=3). To value (reflecting the starting number of cells upon drug treatment) was determined by following steps as described below. After 3 days incubation at 37° C. with 5% CO2, 10 μl of MTT solution (5 mg/ml in PBS) was added to each well and plates were incubated at 37° C. for 3 h to allow MTT to form formazan crystals by reacting with metabolically active cells. 100 μl of 20% SDS was added to each well and plates were incubated overnight at 37° C. with 5% CO2. Afterward, OD570 was measured using microplate reader. The cell growth percentage of control was calculated according to percentage of control=(T−T0)/(C−T0)×100% or OD value of the test well exposure to test drug—OD value at time zero/(OD of the control well without drug treatment−OD value at time zero)×100%. Growth inhibition curves and GI50 were determined using GraphPad Prism 5 software.

U87 cells = assay: MTT cell growth inhibition (GI50), U87; format: cell-based, human; details: 3 days
Procedure: as §1, §2

## Cc1cc(N2CCOC[C@@H]2C)ccc1-c1ccc(CC(=O)NCc2ccccc2)nc1 (stereo in doubt) [Compound 104]
HT-29; HT-29
  GI50: 2.5 nM
HT-29; Homo sapiens, HT-29, HT-29
  GI50: 3.1 nM
Jurkat
  GI50: 2.5 nM
Jurkat; Homo sapiens
  GI50: 2.3 nM
GL261 cells
  GI50: 10 nM and 5.3 nM
U87 cells
  GI50: 4 nM
